# Laboratory results: US20180199572A1, “Herbicidal Composition Comprising Cinmethylin and Metolachlor or S-Metolachlor” (BASF Agro B.V., priority 2015, published 2018)
# Assays:
# Assay in all cases: Greenhouse pre-emergence herbicidal activity
# Assay type in all cases: in vivo
# Settings in all cases: 20 DAT
# [1] = tested on: Lolium multiflorum (LOLMU)
# [2] = tested on: Alopecurus myosuroides (ALOMY)
# Setaria viridis (SETVI) = tested on: Setaria viridis (SETVI)
# [3] = tested on: Chenopodium album (CHEAL)
# [4] = tested on: Anthemis arvensis (ANTAR)
# Stellaria media (STEME) = tested on: Stellaria media (STEME)
# [5] = tested on: Polygonum convolvulus (POLCO)
# Avena fatua (AVEFA) = tested on: Avena fatua (AVEFA)
# [6] = tested on: Abutilon theophrasti (ABUTH)
# [7] = solo S-metolachlor, use rate 250 g ai/ha
# [8] = solo S-metolachlor, use rate 125 g ai/ha
# [9] = solo S-metolachlor, use rate 62.5 g ai/ha
# [10] = solo herbicide A, use rate 125 g ai/ha
# [11] = solo herbicide A, use rate 62.5 g ai/ha
# [12] = solo herbicide A, use rate 31.25 g ai/ha
compound,measurement,setting,value
CCc1cccc(C)c1N(C(=O)CCl)[C@@H](C)COC [S-metolachlor],herbicidal activity (%),[1]; [7],60%
same,herbicidal activity (%),[2]; [8],40%
same,herbicidal activity (%),[2]; [7],50%
same,herbicidal activity (%),Setaria viridis (SETVI); [9],80%
same,herbicidal activity (%),[3]; [9],0%
same,herbicidal activity (%),[4]; [9],0%
same,herbicidal activity (%),[4]; [8],0%
same,herbicidal activity (%),[4]; [7],25%
same,herbicidal activity (%),Stellaria media (STEME); [8],35%
same,herbicidal activity (%),Stellaria media (STEME); [7],65%
same,herbicidal activity (%),[5]; [7],25%
same,herbicidal activity (%),"[5]; solo S-metolachlor, use rate 500 g ai/ha",20%
same,herbicidal activity (%),Avena fatua (AVEFA); [7],25%
same,herbicidal activity (%),[6]; [9],0%
same,herbicidal activity (%),[6]; [8],0%
(±)-2-exo-(2-Methylbenzyloxy)-1-methyl-4-isopropyl-7-oxabicyclo[2.2.1]heptane [herbicide A],herbicidal activity (%),[1]; [10],85%
same,herbicidal activity (%),[2]; [11],98%
same,herbicidal activity (%),[2]; [10],98%
same,herbicidal activity (%),Setaria viridis (SETVI); [12],90%
same,herbicidal activity (%),[3]; [12],40%
same,herbicidal activity (%),[4]; [12],0%
same,herbicidal activity (%),[4]; [11],0%
same,herbicidal activity (%),[4]; [10],0%
same,herbicidal activity (%),Stellaria media (STEME); [11],30%
same,herbicidal activity (%),Stellaria media (STEME); [10],40%
same,herbicidal activity (%),[5]; [10],0%
same,herbicidal activity (%),"[5]; solo herbicide A, use rate 250 g ai/ha",15%
same,herbicidal activity (%),Avena fatua (AVEFA); [10],25%
same,herbicidal activity (%),[6]; [12],30%
same,herbicidal activity (%),[6]; [11],60%
